Experimental data reported in PubChem BioAssay AID248 (DTP/NCI, 2004).
Several values for one entry are separate records, joined by “and”; a condition that tells them apart may be missing. Equal entries are not always repeated. Inconclusive results and toxic doses are left out. Cut-off read from the data, not from the text of the source: active = T/C of 150% or more; inactive = T/C below 125%.

Tested on: L1210 leukemia ip in BDF1 mice, survival T/C
Assay: NCI In Vivo Anticancer Drug Screen. Data for tumor model L1210 Leukemia (intraperitoneal) in B6D2F1 (BDF1) mice
Details: endpoint: mean survival time, higher = longer survival
How it was run: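 Survival endpoint. Drug-treated group vs vehicle group, expressed as T divided by C. Tumor passaged by transplantation.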

[1] = dose: 100.0 mg/kg/injection, schedule: Q04DX003 (ip), vehicle: saline with Tween-80
[2] = dose: 200.0 mg/kg/injection, schedule: Q04DX003 (ip), vehicle: saline with Tween-80
[3] = dose: 400.0 mg/kg/injection, schedule: Q04DX003 (ip), vehicle: saline with Tween-80
[4] = dose: 50.0 mg/kg/injection, schedule: Q01DX009 (ip), vehicle: Klucel (hydroxypropylcellulose) (HPC)
[5] = dose: 100.0 mg/kg/injection, schedule: Q01DX009 (ip), vehicle: Klucel (hydroxypropylcellulose) (HPC)
[6] = dose: 100.0 mg/kg/injection, schedule: Q01DX001 (ip), vehicle: Klucel (hydroxypropylcellulose) (HPC)
[7] = dose: 100.0 mg/kg/injection, schedule: Q01DX009 (ip), vehicle: saline with Tween-80
[8] = dose: 200.0 mg/kg/injection, schedule: Q01DX009 (ip), vehicle: saline with Tween-80
[9] = dose: 400.0 mg/kg/injection, schedule: Q01DX009 (ip), vehicle: saline with Tween-80

Measured: T/C

CC12CCC(CC1)C(O)C2 (configuration not stated)
inactive: dose: 100.0 mg/kg/injection, schedule: Q01DX001 (ip), vehicle: saline with Tween-80 104 % of control | [1] 97 % of control | dose: 200.0 mg/kg/injection, schedule: Q01DX001 (ip), vehicle: saline with Tween-80 101 % of control | [2] 101 % of control | dose: 400.0 mg/kg/injection, schedule: Q01DX001 (ip), vehicle: saline with Tween-80 98 % of control | [3] 87 % of control

Nc1nc2nc(I)[nH]c2c(=O)[nH]1
inactive: dose: 5.0 mg/kg/injection, schedule: Q01DX001 (ip), vehicle: saline 98 % of control | dose: 10.0 mg/kg/injection, schedule: Q01DX001 (ip), vehicle: saline 102 % of control | dose: 20.0 mg/kg/injection, schedule: Q01DX001 (ip), vehicle: saline 98 % of control | dose: 40.0 mg/kg/injection, schedule: Q01DX001 (ip), vehicle: saline 103 % of control

CN(CCN(CCCl)c1ccc(N)cc1)c1ccc(N)cc1
inactive: dose: 10.0 mg/kg/injection, schedule: Q04DX003 (ip), vehicle: saline 110 % of control | dose: 20.0 mg/kg/injection, schedule: Q04DX003 (ip), vehicle: saline 110 % of control | dose: 40.0 mg/kg/injection, schedule: Q04DX003 (ip), vehicle: saline 93 % of control

O=S(=O)(C(Cl)Cl)C(Cl)(Cl)S(=O)(=O)C(Cl)Cl
inactive: dose: 25.0 mg/kg/injection, schedule: Q01DX009 (ip), vehicle: Klucel (hydroxypropylcellulose) (HPC) 96 % of control | [4] 102 % of control | [5] 94 % of control and 90 % of control

CC(C)(Cl)/N=N/C(C)(C)Cl
inactive: dose: 25.0 mg/kg/injection, schedule: Q01DX001 (ip), vehicle: Klucel (hydroxypropylcellulose) (HPC) 99 % of control | dose: 25.0 mg/kg/injection, schedule: Q04DX003 (ip), vehicle: Klucel (hydroxypropylcellulose) (HPC) 98 % of control | dose: 50.0 mg/kg/injection, schedule: Q01DX001 (ip), vehicle: Klucel (hydroxypropylcellulose) (HPC) 92 % of control | dose: 50.0 mg/kg/injection, schedule: Q04DX003 (ip), vehicle: Klucel (hydroxypropylcellulose) (HPC) 97 % of control | [6] 94 % of control and 95 % of control | dose: 100.0 mg/kg/injection, schedule: Q04DX003 (ip), vehicle: Klucel (hydroxypropylcellulose) (HPC) 98 % of control

O=C(O)C1CCCN1C(=O)Cc1ccc2c(c1)OCO2 (configuration not stated)
inactive: dose: 75.0 mg/kg/injection, schedule: Q01DX009 (ip), vehicle: Klucel (hydroxypropylcellulose) (HPC) 96 % of control | [6] 98 % of control | dose: 150.0 mg/kg/injection, schedule: Q01DX009 (ip), vehicle: Klucel (hydroxypropylcellulose) (HPC) 93 % of control | dose: 200.0 mg/kg/injection, schedule: Q01DX001 (ip), vehicle: Klucel (hydroxypropylcellulose) (HPC) 95 % of control | dose: 300.0 mg/kg/injection, schedule: Q01DX009 (ip), vehicle: Klucel (hydroxypropylcellulose) (HPC) 98 % of control | dose: 400.0 mg/kg/injection, schedule: Q01DX001 (ip), vehicle: Klucel (hydroxypropylcellulose) (HPC) 92 % of control

O=C(NCCCCOc1ccc([N+](=O)[O-])cc1Cl)c1ccc(S(=O)(=O)F)cc1
inactive: [7] 93 % of control | [1] 92 % of control | [8] 93 % of control | [2] 93 % of control | [9] 100 % of control | [3] 111 % of control

COc1ccc([N+](=O)[O-])cc1NC(=O)Nc1cccc(C(=O)O)c1
inactive: [4] 101 % of control | [5] 96 % of control | dose: 200.0 mg/kg/injection, schedule: Q01DX009 (ip), vehicle: Klucel (hydroxypropylcellulose) (HPC) 86 % of control

c1ccc([Se+](c2ccccc2)c2ccccc2)cc1
inactive: dose: 0.22 mg/kg/injection, schedule: Q01DX009 (ip), vehicle: Klucel (hydroxypropylcellulose) (HPC) 98 % of control | dose: 0.39 mg/kg/injection, schedule: Q01DX009 (ip), vehicle: saline 94 % of control | dose: 0.45 mg/kg/injection, schedule: Q01DX009 (ip), vehicle: Klucel (hydroxypropylcellulose) (HPC) 110 % of control | dose: 0.78 mg/kg/injection, schedule: Q01DX009 (ip), vehicle: saline 97 % of control | dose: 1.56 mg/kg/injection, schedule: Q01DX009 (ip), vehicle: saline 87 % of control

C1=CN2CCCN3C=CC=c4ccc(c2c43)=C1
inactive: dose: 7.5 mg/kg/injection, schedule: Q01DX009 (ip), vehicle: saline 100 % of control | dose: 15.0 mg/kg/injection, schedule: Q01DX009 (ip), vehicle: saline 98 % of control

COc1cc(C(C)=O)ccc1OS(C)(=O)=O
inactive: dose: 20.0 mg/kg/injection, schedule: Q01DX009 (ip), vehicle: Klucel (hydroxypropylcellulose) (HPC) 100 % of control | dose: 20.0 mg/kg/injection, schedule: Q04DX003 (ip), vehicle: Klucel (hydroxypropylcellulose) (HPC) 106 % of control | dose: 40.0 mg/kg/injection, schedule: Q01DX009 (ip), vehicle: Klucel (hydroxypropylcellulose) (HPC) 98 % of control | dose: 40.0 mg/kg/injection, schedule: Q04DX003 (ip), vehicle: Klucel (hydroxypropylcellulose) (HPC) 93 % of control | dose: 80.0 mg/kg/injection, schedule: Q01DX009 (ip), vehicle: Klucel (hydroxypropylcellulose) (HPC) 96 % of control | dose: 80.0 mg/kg/injection, schedule: Q04DX003 (ip), vehicle: Klucel (hydroxypropylcellulose) (HPC) 98 % of control

O=C(O)Cc1cc2c(cc1I)OCO2
inactive: [7] 98 % of control | [8] 104 % of control | [9] 109 % of control

O=C(Cl)CNS(=O)(=O)c1ccccc1
inactive: dose: 100.0 mg/kg/injection, schedule: Q01DX001 (ip), vehicle: other 106 % of control | dose: 200.0 mg/kg/injection, schedule: Q01DX001 (ip), vehicle: other 108 % of control | dose: 400.0 mg/kg/injection, schedule: Q01DX001 (ip), vehicle: other 111 % of control

CC1Cc2ccccc2C2=C3CC=CCC3C3C(=O)OC(=O)C3C21 (configuration not stated)
inactive: dose: 75.0 mg/kg/injection, schedule: Q01DX001 (ip), vehicle: carboxymethylcellulose (CMC) 89 % of control | dose: 150.0 mg/kg/injection, schedule: Q01DX001 (ip), vehicle: carboxymethylcellulose (CMC) 94 % of control | dose: 300.0 mg/kg/injection, schedule: Q01DX001 (ip), vehicle: carboxymethylcellulose (CMC) 90 % of control

O=C(O)c1c(Cl)c(Cl)c(Cl)c(Cl)c1-c1c2ccc(=O)c(O)c-2oc2c(O)c(O)ccc12
inactive: dose: 100.0 mg/kg/injection, schedule: Q04DX003 (ip), vehicle: saline 102 % of control | dose: 200.0 mg/kg/injection, schedule: Q04DX003 (ip), vehicle: saline 93 % of control

Cc1ccc(/C=N/N=C(N)N)cc1
inactive: dose: 15.0 mg/kg/injection, schedule: Q01DX Z (ip), vehicle: saline 104 % of control | dose: 30.0 mg/kg/injection, schedule: Q01DX Z (ip), vehicle: saline 98 % of control | dose: 30.0 mg/kg/injection, schedule: Q01DX Z (oral), vehicle: saline 99 % of control | dose: 60.0 mg/kg/injection, schedule: Q01DX Z (ip), vehicle: saline 96 % of control | dose: 60.0 mg/kg/injection, schedule: Q01DX Z (oral), vehicle: saline 94 % of control | dose: 120.0 mg/kg/injection, schedule: Q01DX Z (oral), vehicle: saline 97 % of control | dose: 240.0 mg/kg/injection, schedule: Q01DX Z (oral), vehicle: saline 100 % of control

Cc1cc([N+](=O)[O-])cc(C)c1N
inactive: dose: 50.0 mg/kg/injection, schedule: Q01DX001 (ip), vehicle: carboxymethylcellulose (CMC) 100 % of control | dose: 100.0 mg/kg/injection, schedule: Q01DX001 (ip), vehicle: carboxymethylcellulose (CMC) 102 % of control | dose: 200.0 mg/kg/injection, schedule: Q01DX001 (ip), vehicle: carboxymethylcellulose (CMC) 100 % of control | dose: 400.0 mg/kg/injection, schedule: Q01DX001 (ip), vehicle: carboxymethylcellulose (CMC) 110 % of control
